The values below come from patent US5756517A, “Use of bisquinoline compounds in the treatment of cerebral disorders” (Bayer Aktiengesellschaft, priority 1996, dated 1998).

SMILES strings stand for the structures.

For assay [1], the system named is apamine-sensitive potassium channels in PC12 cells. Briefly: Non-radioactive Rb+ efflux assay for the identification of potassium channel modulators (PC12 cells). The format is cell-based. The note with it: Rattus norvegicus, PC-12, 10 min, 10 min stimulation with 50 mM KCl, read-out: % inhibition of the Rb efflux at a test concentration of 10 μM. Here is the method: 2) Non-radioactive Rb^+ efflux assay for the identification of potassium channel modulators
The cellular potassium in PC12 cells is exchanged with rubidium, which is not present in the cells. This exchange is performed by incubating the cells over a period of 4 h in a physiological buffer containing 5.4 mM RbCl without KCl. This rubidium subsequently serves as a tracer for potassium. The cells laden with Rb^+ in this way are washed three times and then stimulated by depolarization with 50 mM KCl to open potassium channels (10 min), causing Rb^+ to flow out of the cells into the supernatant according to the concentration gradient.
The rubidium contents in the cell supernatant and in the residual cells after they have been lyzed with 1% Triton X-100 are then. determined by means of atomic absorption spectroscopy. The relative proportion of rubidium in the cell supernatant (=Rb^+ efflux) is used as a measure of the potassium channel activity.
The effect of substances on the channel activity is measured by co-incubating the test substance over the ten-minute stimulation period and determining its effect on the Rb^+ efflux in the manner described above.

Assay [2] deals with apamin binding sites / apamin receptors (apamin-sensitive potassium channels), calves' cerebral membrane. Nature of the assay: Binding of 125I-apamin to calves' cerebral membrane. The conditions noted are these: displacement of 125I-apamin (30 pM), calf hippocampus membranes, 60 min on ice. Here is the method: 1) Binding of ^125 I-apamin to calves' cerebral membrane
Calf brains were obtained from the local abattoir. The hippocampus was prepared on ice and a membrane suspension was made up by homogenization twice in buffer (100 mM Tris-HCl, KCl 5 mM, pH 7.4) and centrifugation at 43,000×g. In a total volume of 500 μl, the incubation mixture contained 200 μg of membrane protein, 30 pM ^125 I-apamin and test substances in the concentration range 1×10^-9 to 1×10^-4 M. The non-specific binding of ^125 I-apamin was determined in the presence of 1×10^-7 M unlabeled apamin.
After preincubation for 30 min at room temperature (test substances and membrane homogenate), the samples were placed on ice for 10 min before the radioligand was added. The main incubation time was 60 min on ice. When the reaction time had elapsed, an excess of ice-cooled incubation buffer was added to each sample and the mixture was filtered with suction through cellulose acetate/nitrate membrane filters. The amount of bound ^125 I-apamin was measured with a gamma counter.
Background: Displacement assays read how much labelled ligand stays bound in the presence of the test substance.

Regarding `Cc1cc(NCC(O)CNc2cc(C)nc3ccccc23)c2ccccc2n1` [Example 15], the inhibition at 10 µM in assay [1] worked out at 73%.

For `Cc1cc(NCCC(O)CCNc2cc(C)nc3ccccc23)c2ccccc2n1` [Example 14], affinity in assay [2] was put at a Ki of 190 nM.
